In patent publication US8158606B2, “β-L-2′-deoxynucleosides for the treatment of resistant HBV strains and combination therapies” (priority 2002, dated 2012):
≈ marks a conversion by molar mass, not a printed value. Where “and” joins values, the source holds several entries; their conditions need not be identical. Identical values can stand only once. Counter-ions that a name gives are not always drawn. Like-named read-outs stand apart in the source and are kept apart here.

Experiments:
[1] = Log P study, octanol-1 / phosphate buffer; conditions: for log P (octanol/water): octanol-1 / 0.02 M phosphate buffer pH 7.2; for P (B/A): octanol-1 (B) / 0.02 M phosphate buffer pH 7.2 (A), Study 1 and Study 2
Experimental: To 1 mL of this solution, 1 mL of octanol-1 (B) saturated with 0.02 M phosphate buffer solution (A) was added. The resultant mixture was shaken and centrifuged; three samples from each phase was collected and analyzed by HPLC, as shown in Table 10.
The solution was then saturated with octanol-1 (B). To 1 mL of this solution, 1 mL of octanol-1 (B) saturated with 0.02 M phosphate buffer solution (A) was added. The resultant mixture was shaken and centrifuged; three samples from each phase was collected and analyzed by HPLC, as shown in Table 11.

[2] = Solubility study in water (HPLC calibration)
[3] = format: physicochemical; conditions: octanol-1 (B) / MilliQ water pH 6.5 (A′), Study 1 and Study 2, listed as L-dC-5′-valinyl ester hydrochloride
Experimental: (§1) To 1 mL of this solution, 1 mL of octanol-1 (B) saturated with MilliQ water (A′) was added.
as §1

[4] = Stability study in buffer at pH 7.4, 7.20, 4.5 and 1.2; format: physicochemical; conditions: pH 1.2, no decomposition products detected for up to 23 hours
[5] = test system: cytosolic extracts of HepG2 cells; test: Steady state phosphorylation kinetics in cytosolic extracts; format: biochemical, human; conditions: cytosolic extracts of HepG2 cells as enzyme source
[6] = target: hepatitis B virus deoxyribonucleic acid (DNA) polymerase (Hepatitis B virus genotype D subtype ayw, UniProt P03156); test: biochemical
Chain of hepatitis B virus deoxyribonucleic acid (DNA) polymerase (P03156 whole entry): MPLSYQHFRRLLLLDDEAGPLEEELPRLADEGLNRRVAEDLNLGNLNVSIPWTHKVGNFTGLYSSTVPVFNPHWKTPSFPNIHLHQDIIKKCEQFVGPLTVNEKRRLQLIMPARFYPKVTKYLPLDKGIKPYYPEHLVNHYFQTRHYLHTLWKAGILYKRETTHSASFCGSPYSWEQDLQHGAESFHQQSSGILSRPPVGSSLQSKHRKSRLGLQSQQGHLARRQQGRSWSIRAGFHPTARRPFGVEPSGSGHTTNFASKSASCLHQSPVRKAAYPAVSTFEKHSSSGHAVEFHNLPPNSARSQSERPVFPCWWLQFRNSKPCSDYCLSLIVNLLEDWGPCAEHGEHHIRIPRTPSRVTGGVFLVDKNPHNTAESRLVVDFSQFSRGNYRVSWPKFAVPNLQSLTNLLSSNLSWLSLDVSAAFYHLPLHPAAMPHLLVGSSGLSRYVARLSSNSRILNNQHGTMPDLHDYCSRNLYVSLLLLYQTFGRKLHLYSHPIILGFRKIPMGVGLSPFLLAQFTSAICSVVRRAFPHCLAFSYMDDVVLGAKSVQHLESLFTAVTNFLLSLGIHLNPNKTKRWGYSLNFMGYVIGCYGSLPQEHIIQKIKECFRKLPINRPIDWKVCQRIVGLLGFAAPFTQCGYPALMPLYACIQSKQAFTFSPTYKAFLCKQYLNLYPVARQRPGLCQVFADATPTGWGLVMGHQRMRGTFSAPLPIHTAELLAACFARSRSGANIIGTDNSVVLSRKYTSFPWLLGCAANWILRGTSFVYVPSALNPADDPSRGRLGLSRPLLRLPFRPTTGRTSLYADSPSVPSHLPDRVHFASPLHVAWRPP

[7] = test system: M552I mutant HBV, cell line I2; test: Antiviral testing in stable HepG2 cell lines, EPA of intracellular nucleocapsids; format: cell-based, hepatitis B virus
Experimental: (§2) Recombinant DNA constructs corresponding to these lamivudine-resistant mutants were created by site directed mutagenesis. The test system comprised stable cell lines harboring each of the transfected mutant genomes, as well as a wild-type control HBV genome. The antiviral activity of LdT (telbivudine) and LdC, together with the control drugs lamivudine and PMEA, was determined against the mutant and wild-type HBV genomes in the respective test cell lines.
(§3) Endogenous Polymerase Assay (EPA) of cell lysate: Cells were grown in 12-well collagen plates to 100% confluency for 3-4 days and cytosolic lysates were prepared in 1 ml of 50 mM Tris-HCl pH 7.4, 150 mM NaCl, 5 mM MgCl2, 0.2% NP-40. EPAs were essentially performed as described (Seifer et al., 1998). […] The immobilized capsids were then washed, endogenous polymerase reactions were initiated in 50 ul reaction volume containing 50 mM Tris-HCl pH7.4, 75 mM NH4Cl, 1 mM EDTA, 20 mM MgCl2, 0.1 mM β-ME, 0.5% NP-40, 100 μM cold dGTP, TTP, dCTP, and 50 nM ^33P-dATP (Perkin Elmer Life Sciences Cat# NEG 612H), and incubated overnight at 37° C. Following digestion with 1 mg/ml of Proteinase K (Roche, Cat#1373196) for 1 h at 37° C., ^33P-labeled HBV DNA was liberated via phenol/chloroform extraction The nucleic acids were finally precipitated with equal volumes 5M NH4-acetate and 2.5 volumes 100% EtOH and separated on a 1% native agarose gel in Tris-borate buffer. Gels were either fixed with 7% TCA, then dried, or blotted onto positively charged nylon membrane (Pall Biodyne Plus Cat#60406) overnight at room temperature via capillary transfer in 0.4 N NaOH. Dried gels/membranes were exposed to a phosphoimager screen (Molecular Dynamics) overnight at room temperature, then scanned (Storm 860, Molecular Dynamics) and quantitated with ImageQuant (Molecular Dynamics) software.
(§4) 12-well Biocoat collagen I plates (Becton Dickinson Cat#35-4500) are seeded with cells at a density of 0.5-1×10^6 cells per well in 2 ml DMEM containing 5% FBS, 2 mM L-glutamine, 100 I.U. penicillin/100 μg/mL streptomycin, and 0.5 mg/mL G-418.
(§5) Drug dilutions are prepared freshly in 100% DMSO as 200× stocks. For each experiment, 4 aliquots of each drug dilution series are stored at −20° C. until used. Once cells reach confluency, drug treatment is initiated by adding 10 μL of drug dilution into 2 ml of fresh DMEM+5% FBS. […] The no-drug control well receives only 10 μl of DMSO. Cells are treated every other day with 2 mL of fresh drug/medium for a total of 8 days. Cell lysates are then collected on day 10 as described below:
(§6) Aspirate media and rinse cell monolayer carefully once with 1 mL of PBS.
(§7) Add 1 ml of lysis buffer (50 mM Tris-HCl pH 7.5/150 mM NaCl/5 mM MgCl2/0.2% NP-40). Store on ice for 30 min to 4 h.
(§8) Harvest lysed cells. Transfer to 1.5 ml microfuge tubes.
(§9) Clarify lysate by spinning for 5 min at RT and 14,000 rpm.
(§10) Transfer clarified lysate to fresh tubes. Snap-freeze on dry-ice and store at −80° C. until ready to continue with endogenous polymerase assays essentially as described above.
(§11) EC50's were generated from the phosphorimager data by curve fitting using Xlfit software.

[8] = test system: wild-type HBV (ayw), cell line WT3/C1; test: as above; format: cell-based, hepatitis B virus; conditions: WT (ayw); for EC50: cell line WT3/C1, mean ± SD of three to four experiments
Experimental: as §2, §3, §4, §5, §6, §7, §8, §9, §10, §11

[9] = test system: M552V mutant HBV, cell line V1/C9; test: as above; format: cell-based, hepatitis B virus; conditions: for EC50: cell line V1/C9, mean ± SD of three to four experiments
Experimental: as §2, §3, §4, §5, §6, §7, §8, §9, §10, §11

[10] = test system: L515M/M552I mutant HBV, cell line MI4; test: as above; format: cell-based, hepatitis B virus
Experimental: as §2, §3, §4, §5, §6, §7, §8, §9, §10, §11

[11] = test system: L515M/M552V mutant HBV, cell line MV5/B3; test: as above; format: cell-based, hepatitis B virus
Experimental: as §2, §3, §4, §5, §6, §7, §8, §9, §10, §11

[12] = test system: hepatitis B virus; conditions: clinical studies; cited from earlier work
[13] = listed as 3′-valinyl ester hydrochloride of β-L-dC
[14] = Hepatitis B virus, HepG2, M552I, cell line I2, mean ± SD of three to four experiments, read-out: EC50
[15] = Hepatitis B virus, HepG2, M552V
[16] = Hepatitis B virus, HepG2, L515M/M552I, cell line MI4, mean ± SD of three to four experiments, read-out: EC50
[17] = Hepatitis B virus, HepG2, L515M/M552V, cell line MV5/B3, mean ± SD of three to four experiments, read-out: EC50

Molecule: CC(=O)OC[C@@H]1O[C@H](n2ccc(N)nc2=O)C[C@H]1OC(C)=O [3′5′-diacetyl-L-dC, 3′,5′-Di-O-acetyl-2′-deoxy-β-L-cytidine]
- log P (octanol/water) [1]: −0.74

Molecule: CC(C)[C@H](N)C(=O)O[C@@H]1C[C@@H](n2ccc(N)nc2=O)O[C@H]1CO.Cl [3′-val-L-dC, 3′-valinyl ester hydrochloride of β-L-dC]
- Solubility (g/L) [2]: >408 g/L
- Solubility (g/L) [2, 13]: > 408 g/L
- Solubility (mol/L) [2, 13]: greater than 1.023 mol/L
- P (B/A) ([1]; listed as L-dC-3′-valine ester hydrochloride): 0.0296 and 0.0293
- log P (octanol/water) [1]: −1.53

Molecule: CC(C)[C@H](N)C(=O)OC[C@@H]1O[C@H](n2ccc(N)nc2=O)C[C@H]1O [5′-val-L-dC, 5′-L-valine ester of 2′-deoxy-β-L-cytidine hydrochloride]
- P′ (B/A′) [3]: 1.54 × 10^−3 and 2.04 × 10^−3
- stability in words [4]: fully stable

Molecule: Nc1ccn([C@H]2C[C@H](O)[C@@H](CO)O2)c(=O)n1 [D-dC, D-Deoxycytidine]
- maximum initial velocity (Vmax) of phosphorylation [5]: 2.15 nmol/min/mg protein
- Solubility (g/L) [2]: 272 g/L (≈ 1200 mM)
- Solubility (mol/L) [2]: 1.03 mol/L (≈ 234 mg/mL)
- Concentration (mol/L) of single samples ([2]; 1st-3rd HPLC sample of the saturated (D-dC) or most concentrated available solution): 1.07 mol/L and 1.08 mol/L and 0.96 mol/L
- P (B/A) [1]: 0.039
- log P (octanol/water) [1]: −1.41

Molecule: O=c1ccn([C@@H]2C[C@@H](O)[C@H](COP(=O)(O)OP(=O)(O)OP(=O)(O)O)O2)c(=O)[nH]1 [L-dU-TP, β-L-2′-deoxyuridine 5′-triphosphate]
- IC50 [6]: 5.26 µM

Molecule: Nc1ccn([C@@H]2C[C@@H](O)[C@H](CO)O2)c(=O)n1 [LdC-HCl]
- EC50 ([7]; M552I, cell line I2, mean ± SD of three to four experiments, read-out: EC50): ≥ 1000 µM
- EC50 [8]: 0.18 ± 0.09 µM
- EC50 ([9]; M552V): 0.36 ± 0.13 µM
- EC50 ([10]; L515M/M552I, cell line MI4, mean ± SD of three to four experiments, read-out: EC50): ≥ 1000 µM
- EC50 ([11]; L515M/M552V, cell line MV5/B3, mean ± SD of three to four experiments, read-out: EC50): 777 ± 99 µM

Molecule: Nc1ncnc2c1ncn2CCOCP(=O)(O)O [PMEA, 9-{2-(phosphonomethoxy)ethyl}adenine, reference compound]
- EC50 [7, 14]: 1.6 ± 1.12 µM
- activity against the mutant, in words ([7]; M552I single mutant): retained significant activity
- X Resist. (fold resistance) ([7]; M552I, EC50 mutant divided by EC50 wild-type): 4.6 ± 3.0
- EC50 ([8]; Hepatitis B virus, HepG2): 0.33 ± 0.17 µM
- X Resist. (fold resistance) ([8]; EC50 mutant divided by EC50 wild-type): 1
- EC50 [9, 15]: 1.02 ± 0.22 µM
- activity against the mutant, in words ([9]; M552V single mutant): retained significant activity
- X Resist. (fold resistance) ([9]; M552V, EC50 mutant divided by EC50 wild-type): 3.8 ± 2.3
- EC50 [10, 16]: 1.49 ± 0.3 µM
- activity against the mutant, in words ([10]; L515M/M552I double mutant): retained significant activity
- X Resist. (fold resistance) ([10]; L515M/M552I, EC50 mutant divided by EC50 wild-type): 3.6 ± 1.1
- EC50 [11, 17]: 0.62 ± 0.3 µM
- activity against the mutant, in words ([11]; L515M/M552V double mutant): retained significant activity
- X Resist. (fold resistance) ([11]; L515M/M552V, EC50 mutant divided by EC50 wild-type): 3.3 ± 2.9

Molecule: Cc1cn([C@H]2C[C@H](O)[C@@H](CO)O2)c(=O)[nH]c1=O [Thd, D-thymidine]
- maximum initial velocity (Vmax) of phosphorylation [5]: 1.26 nmol/min/mg protein

Molecule: Nc1ccn([C@@H]2CS[C@H](CO)O2)c(=O)n1 [lamivudine, (−)-enantiomer of BCH-189 (2′,3′-dideoxy-3′-thiacytidine), reference compound]
- EC50 ([7]; Hepatitis B virus, HepG2, M552I single mutant): > 1000 µM
- EC50 [7, 14]: ≥ 1000 µM
- EC50 ([8]; Hepatitis B virus, HepG2): 0.05 ± 0.03 µM
- EC50 [9, 15]: 0.96 ± 0.36 µM
- EC50 ([10]; Hepatitis B virus, HepG2, L515M/M552I double mutant): > 1000 µM
- EC50 [10, 16]: ≥ 1000 µM
- EC50 ([11]; Hepatitis B virus, HepG2, L515M/M552V double mutant): > 1000 µM
- EC50 [11, 17]: ≥ 1000 µM

Molecule: Interferon alpha-2b
- patients with no evidence of the hepatitis B virus in their blood over time [12]: 45%
